This is an account of results in patent US10597378B2 (priority 2017, dated 2020).

In one assay the test system is B6 mice. Description: Tail-clip test (mechanical pain). Type of assay: in vivo, mouse. The conditions noted are these: wildtype B6 mice. Here is the method: Each B6 mouse was placed in an acrylic box (10 cm in diameter, 30 cm high) and allowed to acclimate for 5 min before testing, and then a clip was applied 1-cm from the base of the tail. The latency to bite or grasp the clip was measured during the clip was applied to the tail. […] Regardless of the response to 20 s, a cut off time was set to avoid tissue damage.

In assay [1] the test system is oxaliplatin-injected B6 mice. Description: Oxaliplatin-induced neuropathic pain, mechanical allodynia (Von Frey test). Type of assay: in vivo, mouse. The conditions noted are these: PID 3, 30 min after treatment, equi-antinociceptive doses. As for the experimental part: To induce neuropathic pain, each B6 mouse was intraperitoneally injected with either oxaliplatin (3.0 mg/kg), or vehicle (saline) after habituation to the test environment and baseline measurements of pain sensitivity. […] To induce cancer pain, each B6 mouse was injected with either 20 μL phosphate-buffered saline or cells (6×10^5 cells/20 μL phosphate-buffered saline) in the footpad of the right hind paw under isoflurane anesthesia on post-inoculation day 0. On post-inoculation day 19, i.e., the test day, mice were placed on a mesh floor with 5×5 mm holes, covered with a cup to prevent visual stimulation, and allowed to adapt for 1 h prior to testing. […] The tests were initiated with 0.5 g force. Briefly, whenever a withdrawal response occurred, the next weaker von Frey filament was applied. On the other hand, whenever no withdrawal response occurred, the next stronger filament was applied. Mechanical allodynia was defined as changes in the amount of pressure to induce the hind paw withdrawal.
This treatment paradigm was followed to produce neuropathic pain mice.

For the next assay, the target named is T1, myc-tagged human MOR (Homo sapiens, UniProt P35372).
T1 construct: myc; host or cells: mouse pituitary AtT-20 cells
T1 sequence (P35372 whole entry): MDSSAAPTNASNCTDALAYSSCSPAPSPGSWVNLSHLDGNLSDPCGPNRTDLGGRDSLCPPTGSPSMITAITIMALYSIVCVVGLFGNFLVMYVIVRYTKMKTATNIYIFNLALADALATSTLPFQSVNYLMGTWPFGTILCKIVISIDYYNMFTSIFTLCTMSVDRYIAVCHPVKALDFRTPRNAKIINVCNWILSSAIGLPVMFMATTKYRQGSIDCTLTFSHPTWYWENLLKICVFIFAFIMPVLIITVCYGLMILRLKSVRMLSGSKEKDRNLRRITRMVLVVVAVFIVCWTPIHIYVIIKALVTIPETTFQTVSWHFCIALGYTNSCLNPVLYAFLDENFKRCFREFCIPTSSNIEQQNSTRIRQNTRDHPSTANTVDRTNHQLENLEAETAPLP
Description: cell-based.

For another assay, the target named is MOR (Homo sapiens, UniProt P35372). Kind of assay: cell-based. The conditions noted are these: read-out: FLIPR Ca2+ EC50. On the set-up: expressed in transfected cells; host or cells: CHO-K1/MOR/Ga15 cells. Here is the method:
In an exemplary in vitro assay for identifying MOR agonists, cells that express a MOR are treated with a test compound in a cellular calcium fluorescent assay and calcium fluorescence intensity is then measured to determine whether the MOR is activated. A test compound is identified as a MOR agonist if the MOR is activated.
EC50 herein refers to the concentration of a compound that induces a response halfway between the baseline and the maximum after a specified exposure time. AUC refers to the area under the response curve, an indication of the compound's capability of activating a MOR.
One day before the assay, CORNING® black with clear flat bottom 96-well assay plates were coated with a 0.1 mg/mL Poly-L-Lysine solution. CHO-K1/MOR/Ga15 cells were suspended in the F12 medium and plated at a density of about 8×10^4 cells/well in […] medium. Cells were incubated in a humidified atmosphere of 10% CO2 at 37° C. overnight so as to reach an 80-90% confluent cell monolayer before the assay. On the day of the assay, 150 μL medium/well was removed from plate. […] Compounds and other reagents were dissolved in the assay buffer. […] The [Ca^2+]i fluorescence was measured up to 90 s after agonist injection.

The target in the next assay is T2, human NOP receptor (Homo sapiens, UniProt P41146).
T2 construct: expressed in transfected cells; host or cells: CHO-K1 (CHO-K1-NOP)
T2 sequence (P41146 whole entry): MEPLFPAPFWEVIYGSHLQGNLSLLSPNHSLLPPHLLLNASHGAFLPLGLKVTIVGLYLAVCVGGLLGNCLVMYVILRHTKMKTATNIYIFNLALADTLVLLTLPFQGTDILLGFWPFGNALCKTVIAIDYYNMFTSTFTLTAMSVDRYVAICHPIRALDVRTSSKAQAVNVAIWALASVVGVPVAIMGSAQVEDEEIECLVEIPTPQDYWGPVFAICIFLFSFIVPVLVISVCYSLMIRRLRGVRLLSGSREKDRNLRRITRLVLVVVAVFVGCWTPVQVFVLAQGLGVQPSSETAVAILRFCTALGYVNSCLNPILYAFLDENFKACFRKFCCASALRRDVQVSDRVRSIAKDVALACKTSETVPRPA
Kind of assay: cAMP assay in CHO-K1 cells expressing human NOP (CHO-K1-NOP). Type of assay: cell-based. The conditions noted are these: read-out: EC50 in decreasing the cAMP level. An excerpt: In an exemplary in vitro assay for identifying NOP agonists, cells are engineered to overexpress NOP and are designed to detect changes in intracellular cAMP levels in response to agonist stimulation of the receptor. The enzyme donor-cAMP complex complements with the acceptor and forms an active enzyme. The active enzyme subsequently hydrolyzes a substrate to produce a chemiluminescent signal that is directly proportional to the amount of cAMP in the cells. These cells have thus been modified to work in an agonist mode.
Cells (72,000 per well) were plated in 100 μl/well of DMEM in 96-well solid-bottom white plates (GIBCO) and 50 μl/well of drug in HBSS in the presence of forskolin and 3-isobutyl-1-methylxanthine at final concentrations of 1 μM and 500 μM, respectively. After 30 min of incubation at room temperature, the concentration of cyclic adenosine monophosphate was determined using a LANCE Ultra cAMP Assay kit (PerkinElmer).
It was measured using the PathHunter enzyme complementation assay in CHO-K1 cells expressing human NOP (CHO-K1-NOP).
For orientation: cAMP levels reflect the balance of adenylyl cyclase and phosphodiesterase activity.

In assay [2] the test system is melanoma cell-implanted B6 mice. Kind of assay: Cancer-induced pain, cold allodynia (acetone drop test). Type of assay: in vivo, mouse. The note with it: PID18, 30 min after treatment. Here is the method:
In cancer-induced pain model, cold allodynia in mice was assessed by using the acetone test. Absolute acetone (100%) in a volume of 5 μL was placed on the base of the paw in mice. […]
The cold allodynia was tested using acetone drop test and mechanical allodynia was measured using the Von Frey test to examine the antinociceptive effects of each drug treatment.

Chain of MOR (P35372 whole entry): as the sequence (P35372 whole entry) above

Broadly, the EC50 is the concentration that produces a half-maximal response. In the case of `CN1CCc2ccccc2C1CNC(=O)c1ccc(Cl)c(Cl)c1` (stereo not shown) [Compound 67, 3,4-Dichloro-N-[(2-methyl-1,2,3,4-tetrahydro-1-isoquinolinyl)methyl]benzamide], in the assay with B6 mice, the “antinociception of mechanical pain” value was “higher antinociceptive effect with mechanical stimuli than morphine”. Besides, the “antinociceptive effect in oxaliplatin-induced sensory allodynia” value in assay [1] is on record as “comparable to that of morphine”. The half-maximal effective concentration (EC50) on myc-tagged human MOR turned out to be 0.0599 µM; at MOR, 0.01 µM; at human NOP receptor it was 0.0022 µM. Also, the “Emax of membrane potential hyperpolarization” value at myc-tagged human MOR is on record as “slightly higher than that of morphine”. Besides, the “licking and shaking frequency” value in assay [2] was “less than that of morphine”.
